# Experiments:
# [1] = target: Human recombinant PDE10A2 (Homo sapiens (Human), UniProt Q9Y233); test: In vitro hPDE10a: human recombinant PDE10A2 scintillation proximity assay, IC50; assay type: biochemical; settings: human recombinant PDE10A2, SPA, 60 nM cAMP; read-out: hPDE10a2 IC50
# Method in brief: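 Purified recombinant human PDE10A2 (Ni-sepharose) was assayed by SPA, counting [3H]-AMP product captured on yttrium silicate beads added in zinc sulphate stop solution. Inhibition was expressed as % of activity without compound, with a no-enzyme low control. Repeat data points were aggregated.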
# [2] = target: Rat recombinant PDE10a (rPDE10a) (Rattus norvegicus (Rat), UniProt Q9QYJ6); test: In vitro assay PDE10a: rat recombinant PDE10a SPA with 3H-cAMP substrate, IC50; assay type: biochemical; settings: 60 nM cAMP, read-out: rPDE10a2 IC50
# Rat recombinant PDE10a (rPDE10a), sequence (Q9QYJ6 whole entry): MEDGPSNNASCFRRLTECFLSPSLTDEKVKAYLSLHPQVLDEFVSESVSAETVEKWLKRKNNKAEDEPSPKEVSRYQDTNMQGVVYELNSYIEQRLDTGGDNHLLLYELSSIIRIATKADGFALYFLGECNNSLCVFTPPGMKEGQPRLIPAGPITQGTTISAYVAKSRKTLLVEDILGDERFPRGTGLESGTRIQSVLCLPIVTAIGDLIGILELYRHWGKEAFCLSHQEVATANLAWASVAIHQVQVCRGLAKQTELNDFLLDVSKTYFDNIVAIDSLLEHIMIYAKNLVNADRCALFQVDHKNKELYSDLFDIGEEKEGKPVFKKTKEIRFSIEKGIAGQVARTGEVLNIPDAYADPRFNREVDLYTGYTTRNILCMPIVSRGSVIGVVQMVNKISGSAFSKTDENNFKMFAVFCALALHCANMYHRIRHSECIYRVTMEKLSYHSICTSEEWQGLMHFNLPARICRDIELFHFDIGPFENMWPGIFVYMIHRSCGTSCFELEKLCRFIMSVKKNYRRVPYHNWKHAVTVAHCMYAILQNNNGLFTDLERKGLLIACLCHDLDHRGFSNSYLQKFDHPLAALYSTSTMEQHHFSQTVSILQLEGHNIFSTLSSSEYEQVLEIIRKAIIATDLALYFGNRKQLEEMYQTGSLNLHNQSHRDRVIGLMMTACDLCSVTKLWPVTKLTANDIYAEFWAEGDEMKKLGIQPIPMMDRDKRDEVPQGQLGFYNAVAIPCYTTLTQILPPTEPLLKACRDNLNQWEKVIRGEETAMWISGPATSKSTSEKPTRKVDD
# Method in brief: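 Enzyme expressed in Sf9 cells via baculovirus and Ni-sepharose purified; reaction with 3H-cAMP ran 60 min at rt, stopped with PDE SPA beads. Compounds diluted in DMSO at 100-fold final concentration; blanks omitted enzyme.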
# [3] = PDE10a perfused brain permeability study: plasma concentrations at 30 and 120 min, brain concentration at 120 min, brain/plasma ratio; settings: male, Sprague-Dawley, rat; for Kp at 2 h: brain/plasma
# Procedure: PDE10a-Brain Permeability Assay
# (§1) A. PDE10a-Perfused Brain Permeability Study Protocol
# (§2) Drug administration by oral gavage, subcutaneous injection or intravenous was carried out using male Sprague Dawley rats under IACUC protocol (SH-MET3010). Male Sprague Dawley rats (Charles River) ˜300-350 g were maintained on a 4% standard rodent diet (Test Diet 5001). They are allowed ad libitum access to water and food. Room temperature was maintained at 64° F. and humidity at 30-70%.
# (§3) Three animals per compound were provided a dose of 2 mg/mL in 20% HpbCD/Tris pH 8 by tail i.v. or 30 mpk p.o. or s.c. in 20% HpbCD/Tris pH 8, with PDE10a antagonists. A first blood sample was collected at 30 min via retro-orbital sinus (anesthetic by 70% CO2/30% O2) into heparinzed plasma separator tubes. The blood was centrifuged and 100 μL plasma was placed into a 96 well plate and saved on dry ice.
# (§4) After the 120 min, the final blood sample was collected via retro-orbital sinus under anesthesia by IP 0.5 cc injection of a 4/1 mixture of Ketaset: AnaSed [(prepared 10 mL Ketaset (100 mg/mL Ketamine)+2.5 mL AnaSed (20 mg/mL Xylazine)]. The rats were then perfused with 400 mL heparinized saline (10,000 units/L) through the left ventricle of the heart; the brains were then removed (not including the medulla), weighed and homogenized in PBS (4 mL/g tissue). The samples were stored at −80° C. and submitted for chemical analysis of blood and brain concentrations. Endpoints of sample analysis consists of the plasma concentrations at 30 and 120 min, plus brain concentrations at 120 min.
# [4] = rat, in vivo
# Procedure: PDE10a-Brain Permeability Assay
# as §1, §2, §3, §4
# Human recombinant PDE10A2, sequence (Q9Y233 267-1055): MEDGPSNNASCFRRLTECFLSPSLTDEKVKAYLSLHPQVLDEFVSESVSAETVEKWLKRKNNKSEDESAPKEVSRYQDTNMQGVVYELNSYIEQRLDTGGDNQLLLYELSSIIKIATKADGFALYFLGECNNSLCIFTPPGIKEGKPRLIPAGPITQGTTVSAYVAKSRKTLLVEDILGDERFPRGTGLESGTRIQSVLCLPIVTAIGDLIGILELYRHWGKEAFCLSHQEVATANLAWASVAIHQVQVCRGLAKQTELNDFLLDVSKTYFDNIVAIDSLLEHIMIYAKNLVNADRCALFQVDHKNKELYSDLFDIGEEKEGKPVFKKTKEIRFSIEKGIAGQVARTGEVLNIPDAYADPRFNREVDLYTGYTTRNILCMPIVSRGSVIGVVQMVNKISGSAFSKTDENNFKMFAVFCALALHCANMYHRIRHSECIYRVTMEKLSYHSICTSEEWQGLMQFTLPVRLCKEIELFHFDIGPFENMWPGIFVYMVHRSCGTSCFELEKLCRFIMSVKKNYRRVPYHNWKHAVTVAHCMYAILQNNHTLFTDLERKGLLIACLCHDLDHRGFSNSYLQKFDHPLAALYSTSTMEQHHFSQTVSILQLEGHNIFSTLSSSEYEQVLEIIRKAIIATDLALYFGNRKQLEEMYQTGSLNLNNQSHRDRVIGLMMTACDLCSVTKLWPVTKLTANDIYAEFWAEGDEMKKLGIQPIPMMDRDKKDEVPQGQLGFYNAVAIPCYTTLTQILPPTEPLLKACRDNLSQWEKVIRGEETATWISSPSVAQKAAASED
Structure (SMILES),IC50 [1] [nM],IC50 [2] [nM],concentration at 2 h ([3]; brain) [ng/g],Kp at 2 h [3],concentration at 2 h ([3]; plasma) [ng/mL],Brain conc 2 h [4] [ng/g],Plasma conc 2 h [4] [ng/mL],Ratio Br/Pl Mean 2 h [4]
"CS(=O)(=O)NC(=O)c1ccc(-c2c(CCc3ccc4ccccc4n3)nc3c(N4CCOCC4)ccnn23)cc1 [compound 43, N-(Methylsulfonyl)-4-(8-morpholino-2-(2-(quinolin-2-yl)ethyl)imidazo[1,2-b]pyridazin-3-yl)benzamide]",2,1,0,0,1.8,,,
"O=C(O)CCNC(=O)c1ccc(-c2c(/C=C/c3ccc4ccccc4n3)nc3c(N4CCOCC4)ccnn23)cc1 [compound 44, (E)-3-(4-(8-Morpholino-2-(2-(quinolin-2-yl)vinyl)imidazo[1,2-b]pyridazin-3-yl)benzamido)propanoic acid]",4,1,0,0,83,,,
"O=C(O)CCC(=O)Nc1ccc(-c2c(/C=C/c3ccc4ccccc4n3)nc3c(N4CCOCC4)ccnn23)cc1 [compound 48, (E)-4-((4-(8-Morpholino-2-(2-(quinolin-2-yl)vinyl)imidazo[1,2-b]pyridazin-3-yl)phenyl)amino)-4-oxobutanoic acid]",9,6,0,0,35,,,
"OC(c1ccc(-c2c(/C=C/c3ccc4ccccc4n3)nc3c(N4CCOCC4)ccnn23)cc1)(C(F)(F)F)C(F)(F)F [compound 52, (E)-1,1,1,3,3,3-Hexafluoro-2-(4-(8-morpholino-2-(2-(quinolin-2-yl)vinyl)imidazo[1,2-b]pyridazin-3-yl)phenyl)propan-2-ol]",52,41,54,0.16,326,,,
"COc1cc(-c2c(/C=C/c3ccc4ccccc4n3)nc3c(N4CCOCC4)ccnn23)ccc1C(=O)O [compound 67, (E)-2-Methoxy-4-(8-morpholino-2-(2-(quinolin-2-yl)vinyl)imidazo[1,2-b]pyridazin-3-yl)benzoic acid]",22,5,16.9,0.02,725,,,
"CS(=O)(=O)NC(=O)c1ccc(-c2c(C#Cc3ccc4ccccc4n3)nc3c(N4CCOCC4)ccnn23)cc1 [compound 83, N-(Methylsulfonyl)-4-(8-morpholino-2-(quinolin-2-ylethynyl)imidazo[1,2-b]pyridazin-3-yl)benzamide]",1,1,0,0,205,,,
"O=C(O)c1ccc(-c2c(/C=C/c3ccc4ccccc4n3)nc3c(N4CCOCC4)ccnn23)cc1F [compound 103, (E)-2-Fluoro-4-(8-morpholino-2-(2-(quinolin-2-yl)vinyl)imidazo[1,2-b]pyridazin-3-yl)benzoic acid]",3,3,0,0,199,,,
"CS(=O)(=O)NC(=O)c1ccc(-c2c(/C=C/c3ccc4ccccc4n3)nc3c(N4CCOCC4)ccnn23)cc1F [compound 134, (E)-2-Fluoro-N-(methylsulfonyl)-4-(8-morpholino-2-(2-(quinolin-2-yl)vinyl)imidazo[1,2-b]pyridazin-3-yl)benzamide]",4,7,0,0,926,,,
"O=C(O)CCc1ccc(-c2c([C@H]3C[C@H](c4ccc5ccccc5n4)C3)nc3c(N4CCOCC4)ccnn23)cc1 [compound 169, 3-(4-(8-Morpholino-2-((1r,3r)-3-(quinolin-2-yl)cyclobutyl)imidazo[1,2-b]pyridazin-3-yl)phenyl)propanoic acid]",2,,,,,0,106,0

# — US9193736B2, “PDE 10a inhibitors for the treatment of type II diabetes” (Janssen Pharmaceutica, NV, priority 2013, dated 2015)
